{
  "source": "paper PMC9321894",
  "about": "“Design and Anticancer Properties of New Water-Soluble Ruthenium–Cyclopentadienyl Complexes” (Pharmaceuticals, 2022)",
  "key": {"Solubility in water": {"experiment": "Solubility in water", "type": "physicochemical", "settings": "in presence of air, 25 °C"}, "[1]": {"experiment": "Stability in water in presence of air (UV-vis, 1H and 31P NMR)", "type": "physicochemical", "description": "The stability of all the complexes in water was evaluated by ^31P NMR and UV–visible spectroscopies. Generally, a 5 mm NMR tube was charged in the air with the 10 mg of each complex and D2O (0.8 mL). ^1H NMR and ^31P NMR were monitored for four days to evaluate if there was any decomposition product. Decomposition/instability of the compound can be assessed by the disappearance of the NMR signals and/or by the appearance of new signals that could not be assigned to the known complex, beyond the appearance of free mTPPMS phosphine signals. Any eventual changes in the charge transfer bands between ruthenium and ligands were followed by UV–visible in the 300–900 nm range."}, "[2]": {"experiment": "n-Octanol/water partition coefficient, shake-flask method", "type": "physicochemical", "settings": "room temperature", "description": "The lipophilicity of the complexes was measured by the shake-flask method. Distilled water and n-octanol were mixed vigorously for 24 h at 25 °C, to promote solvent saturation in both phases, before the experiments. […] Aliquots of stock solutions were equilibrated with octanol for 4 h in a mechanical shaker. The phase ratio was 2 mL/2 mL (water/n-octanol). The aqueous and octanol layers were carefully separated (by centrifugation at 5000 rpm for 10 min), and UV–vis absorption spectra of the compounds were registered in both phases. The concentration for each sample was determined using the calibration curve. Triplicate experiments have been performed for each complex and the averages were calculated."}, "[3]": {"test_system": "A2780 ovarian cancer cells", "experiment": "MTT cytotoxicity assay, A2780", "type": "cell-based, human", "settings": "A2780, 72 h, mean ± SD n = 3", "description": "(§1) The cytotoxic activity of all complexes was screened against A2780 (ovarian, Sigma-Aldrich, Lisboa, Portugal), MDAMB231 (breast, triple negative, ATCC), and HT29 (colon, ATCC) human cancer cells. Cells were grown in RPMI 1640 (A2780) or DMEM containing GlutaMax-I (MDAMB231), or McCoy’s (HT29) supplemented with 10% FBS and 1% penicillin/streptomycin (Invitrogen, Lisboa, Portugal). All cell lines were kept in a CO2 incubator (Heraeus, Hanau, Germany) with 5% CO2 at 37 °C in a humidified atmosphere. Cell viability was measured using the colorimetric MTT (3-(4,5-dimethylthiazol-2-yl)-2,5-diphenyltetrazolium bromide) assay. For the assays, cells were seeded in 200 μL of complete medium in 96-well plates and incubated at 37 °C for 24 h prior to complex treatment to allow cell adherence. The stock solutions in water (20 mM) of the complexes were freshly prepared and used for sequential dilutions in medium within the concentration range of 10^−10–10^−4 M. Cisplatin was also included in this study as a positive control. After careful removal of the medium, […] of a serial dilution of compounds in fresh medium was added to the cells, and incubation was carried out for 72 h at 37 °C. At the end of the treatment, the medium was discarded, and the cells were incubated with […] of an MTT solution in PBS (0.5 mg mL^−1). After 3 h incubation, medium was removed, and DMSO was added to solubilize the purple formazan crystals formed. The absorbance at 570 nm was measured using a plate spectrophotometer (Power Wave Xs, Bio-Tek, Winooski, VT, USA). Each experiment was repeated at least three times and each concentration tested in at least six replicates. The IC50 values were calculated from dose–response curves analyzed with the GraphPad Prism software (version 5.0)."}, "[4]": {"test_system": "MDAMB231 triple-negative breast cancer cells", "experiment": "MTT cytotoxicity assay, MDAMB231", "type": "cell-based, human", "settings": "MDAMB231, 72 h, mean ± SD n = 3", "description": "as §1"}},
  "note": "Marks after values point to notes of the source that are not given here.",
  "data": [
    {"substance": "[RuCp(mTPPMSNa)(bopy)][CF3SO3] [Compound 6]", "values": [
      {"measurement": "S(H2O)", "setting": "Solubility in water", "result": 15.3, "unit": "mg/mL"},
      {"measurement": "S(H2O)", "setting": "Solubility in water; value in brackets", "result": 0.015, "unit": "M"},
      {"measurement": "Changes in the UV–vis spectra in aqueous solution", "setting": "[1]; over 4 days at 37 °C", "result": "insignificant"},
      {"measurement": "Stability in water, Time (Days)", "setting": "[1]; water, in presence of air, 25 °C, time without hydrolysis", "result": ">4 ^[b] Days"},
      {"measurement": "Log Po/w", "setting": "[2]", "result": "5.68 ± 0.05"},
      {"measurement": "IC50", "setting": "[3]", "result": "370 ± 200", "unit": "nM"},
      {"measurement": "IC50", "setting": "[4]", "result": "13.4 ± 0.4", "unit": "µM"}
    ]}
  ]
}
